Measurements reported in PMC3969223, “Characterization of WZ4003 and HTH-01-015 as selective inhibitors of the LKB1-tumour-suppressor-activated NUAK kinases” (Biochemical Journal, 2013).
“And” between values parts separate entries of the source, which are not always exact repeats. Equal values may be shown once.

Tests used:
[1] = system: MYPT1 Ser445 phosphorylation; assay: MYPT1 Ser445 phosphorylation on EDTA-induced detachment, HEK-293; type: cell-based, human; settings: HEK-293, 16 h; for Suppression of MYPT1 Ser445 phosphorylation (in words): HTH-01-015 at 10 μM
Protocol: HEK (human embryonic kidney)-293 and U2OS cells were cultured in DMEM (Dulbecco's modified Eagle's medium) supplemented with 10% FBS, 2 mM glutamine and 1×antibacterial/antimycotic solution. NUAK1^+/+ and NUAK1^−/− MEFs were cultured in DMEM supplemented with 10% (v/v) FBS and 2 mM glutamine, 1×antibacterial/antimycotic solution, 1% (v/v) non-essential amino acids and 1% (v/v) sodium pyruvate. HEK-293 Flp/In T-Rex cell lines were cultured in DMEM supplemented with 10% (v/v) FBS and 2 mM glutamine, 1×antibacterial/antimycotic solution, 100 μg/ml hygromycin and 15 μg/ml blasticidin. Supplementing the culture medium with 0.1 μg/ml doxycycline for 16–24 h induced protein expression in the HEK-293 Flp/In T-Rex cells. Cell counting was carried out using Invitrogen Countess following the manufacturer's protocol. A cell-detachment assay was carried out on HEK-293 cells using PBS-EDTA-based cell dissociation buffer as described previously. An inhibitor dose-dependence assay was carried out by treating the cells with various concentrations of the inhibitors as indicated in the Figure legends. The inhibitors were dissolved in DMSO and the total concentration of DMSO in the culture media never exceeded 1%. Transient transfections of HEK-293 cells were carried out using PEI [24]. Stable transfections were carried out in HEK-293 Flp/In T-Rex cells (Invitrogen) following the manufacturer's protocol. Lentivirus-mediated knock down of NUAK1 was carried out in U2OS cells using shRNA constructs as described previously. Post-treatment and/or transfection, cells were lysed in lysis buffer containing 50 mM Tris/HCl (pH 7.5), 1 mM EGTA, 1 mM EDTA, 1% Triton X-100, 50 mM NaF, 10 mM sodium 2-glycerophosphate, 5 mM sodium pyrophosphate, 1 mM sodium orthovanadate, 0.27 M sucrose, 1 mM benzamidine (added before lysis), 1 mM PMSF (added before lysis) and 0.1% 2-mercaptoethanol (added before lysis). Lysates were clarified by centrifugation at 16000 g for 15 min at 4°C and either used for further experiments or snap-frozen in liquid nitrogen and stored at −80°C. Protein estimation was carried out using the Bradford method with BSA as a standard.
Figure 5 HTH-01-015 and WZ4003 inhibit MYPT1 Ser^445 phosphorylation in vivo (A) HEK-293 cells were treated in the absence (DMSO) or presence of the indicated concentrations of WZ4003 over 16 h. Cell medium was then replaced with either normal DMEM containing no EDTA-PBS-based cell dissociation buffer (−) or EDTA-PBS-based cell dissociation buffer (+) containing the same concentration of WZ4003 that the cells were previously incubated in. Cell detachment was induced with gentle tapping of the plates followed by gentle centrifugation at 70 g for 3 min. Cells were lysed immediately after removal of the supernatant. Endogenous MYPT1 was immunoprecipitated from 0.5 mg of the cell lysates. The immunoprecipitates were immunoblotted for the detection of p-Ser^445 MYPT1 and total MYPT1. The cell lysates were subjected to immunoblotting for the detection of p-Ser^79 ACC and total ACC. Similar results were obtained in three separate experiments. (B) As in (A) except for the HTH-01-015 inhibitor was used. (C–F) As above except that HEK-293 Flp/In T-Rex cells stably expressing the indicated wild-type HA-tagged NUAK1 or drug-resistant HA-tagged NUAK1[A195T] were used. Similar results were obtained in three separate experiments for all data shown on this Figure.

[2] = system: panel of 140 protein kinases; assay: Protein kinase profiling, whole panel; type: biochemical; settings: 1 μM, panel of 140 kinases
Protocol: Kinase inhibitor specificity profiling assays were carried out at The International Centre for Protein Kinase Profiling (http://www.kinase-screen.mrc.ac.uk/) against a panel of 140 protein kinases as described previously. Results are presented as a percentage of kinase activity in DMSO control reactions. Protein kinases were assayed in vitro with 0.1 or 1 μM of the inhibitors and the results are presented as an average of triplicate reactions±S.D. or in the form of comparative histograms.

NUAK1[A195T] = biological target: T1, NUAK1[A195T] (Homo sapiens, UniProt O60285, A195T); assay: GST–NUAK1[A195T] Sakamototide peptide kinase assay; type: biochemical; settings: for IC50: 200 μM Sakamototide, 100 μM [γ-32P]ATP; for Reduction of potency (resistance) by the NUAK1 A195T mutation: NUAK1[A195T] versus wild-type NUAK1
T1 construct: made in house; host or cells: HEK-293 cells, transient transfection of pEBG2T construct
T1 sequence (O60285 1-661 A195T): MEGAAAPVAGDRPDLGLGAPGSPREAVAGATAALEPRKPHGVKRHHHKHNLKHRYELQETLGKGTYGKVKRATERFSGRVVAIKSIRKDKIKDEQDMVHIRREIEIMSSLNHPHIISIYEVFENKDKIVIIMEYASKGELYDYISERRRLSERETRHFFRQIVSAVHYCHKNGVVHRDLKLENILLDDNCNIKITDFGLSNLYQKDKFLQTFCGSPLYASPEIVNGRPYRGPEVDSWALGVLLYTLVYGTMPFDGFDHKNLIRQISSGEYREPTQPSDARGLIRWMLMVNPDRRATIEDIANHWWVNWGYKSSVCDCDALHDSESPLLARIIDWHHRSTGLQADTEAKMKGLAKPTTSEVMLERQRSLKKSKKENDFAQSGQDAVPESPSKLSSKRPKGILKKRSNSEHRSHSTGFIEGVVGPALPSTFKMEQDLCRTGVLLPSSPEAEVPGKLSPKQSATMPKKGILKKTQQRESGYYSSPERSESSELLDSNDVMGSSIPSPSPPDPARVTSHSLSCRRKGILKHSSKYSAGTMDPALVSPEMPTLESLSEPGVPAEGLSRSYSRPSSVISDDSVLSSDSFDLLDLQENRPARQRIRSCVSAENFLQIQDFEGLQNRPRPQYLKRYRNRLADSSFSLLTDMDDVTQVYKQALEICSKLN
Protocol: Active GST–NUAK1, GST–NUAK1[A195T] and GST–NUAK2 enzymes were purified using glutathione–Sepharose from HEK-293 cell lysates 36–48 h following the transient transfection of pEBG2T mammalian constructs expressing N-terminal GST-tagged NUAK1, NUAK1[A195T] or NUAK2. For peptide kinase assays, 96-well plates were used, and each reaction was performed in triplicate. Each reaction was set up in a total volume of 50 μl containing 100 ng of NUAK1 (wild-type or A195T mutant) or NUAK2 in 50 mM Tris/HCl (pH 7.5), 0.1 mM EGTA, 10 mM magnesium acetate, 200 μM Sakamototide, 0.1 mM [γ-^32P]ATP (450–500 c.p.m./pmol) and the indicated concentrations of inhibitors dissolved in DMSO. After incubation for 30 min at 30°C, reactions were terminated by adding 25 mM (final) EDTA to chelate the magnesium. Then, 40 μl of the reaction mix was spotted on to P81 paper and immersed in 50 mM orthophosphoric acid. Samples were washed three times in 50 mM orthophosphoric acid followed by a single acetone rinse and air drying. The incorporation of [γ-^32P]ATP into Sakamototide was quantified by Cerenkov counting. The values were expressed as a percentage of the DMSO control. IC50 curves were developed and IC50 values were calculated using GraphPad Prism software.

Compound	Inhibitor concentration for maximal suppression of MYPT1 Ser445 phosphorylation [1]	Suppression of MYPT1 Ser445 phosphorylation (in words) [1]	Selectivity over the other kinases of the panel (in words) [2]	IC50 (NUAK1[A195T])	Reduction of potency (resistance) by the NUAK1 A195T mutation (NUAK1[A195T])
Cc1nc(Nc2cnn(C3CCNCC3)c2)nc2c1N(C)C(=O)c1cc3ccccc3cc1N2C [HTH-01-015]	3 to 10 µM	only led to a partial inhibition	did not markedly suppress	5890 nM	~ 50 fold and ~ 60 fold
CCC(=O)Nc1cccc(Oc2nc(Nc3ccc(N4CCN(C)CC4)cc3OC)ncc2Cl)c1 [WZ4003]	3 to 10 µM	suppressed MYPT1 phosphorylation in a dose-dependent manner	did not significantly inhibit	900 nM	~ 50 fold and 45 fold
CN1C(=O)c2ccccc2N(C)c2nc(Nc3cnn(C4CCNCC4)c3)ncc21 [XMD-17-51]	–	only partially suppressed	less selective	600 nM	> 50 fold
CN1C(=O)c2cc3ccccc3cc2N(C)c2nc(Nc3cnn(C4CCNCC4)c3)ncc21 [XMD-18-42]	–	only partially suppressed	less selective	1500 nM	> 50 fold
